Source: paper PMC8253220, “Molecular design, synthesis and in vitro biological evaluation of thienopyrimidine–hydroxamic acids as chimeric kinase HDAC inhibitors: a challenging approach to combat cancer” (Journal of Enzyme Inhibition and Medicinal Chemistry, 2021)
Values joined by “and” are separate entries in the source; they are usually repeats but may differ in a detail not shown here. Equal entries are not always repeated.

Columns and labels:
Experiment in all cases: NCI one-dose screen
Assay type in all cases: cell-based, human
M14 = conditions: Melanoma M14, 10 µM single dose
Summary of the method: (§1)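 At 10 μM, a single concentration, compounds were evaluated for antiproliferative effect in the NCI 60-line screen, with growth expressed relative to untreated control cells.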

HT29 = conditions: Colon HT29, 10 µM single dose
Summary of the method: as §1

786-0 = conditions: Renal 786-0, 10 µM single dose
Summary of the method: as §1

NCI/ADR-RES = conditions: Ovarian NCI/ADR-RES, 10 µM single dose
Summary of the method: as §1

HL-60(TB) = conditions: Leukemia HL-60(TB), 10 µM single dose
Summary of the method: as §1

SK-MEL-28 = conditions: Melanoma SK-MEL-28, 10 µM single dose
Summary of the method: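 Compounds were tested at a single dose of 10 μM across the full NCI-60 cell line panel. Growth was expressed as percent growth relative to untreated control cells, reported as percent inhibition.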

A549/ATCC = conditions: NSCLC A549/ATCC, 10 µM single dose
Summary of the method: as §1

CCRF-CEM = conditions: Leukemia CCRF-CEM, 10 µM single dose
Summary of the method: as §1

U251 = conditions: for Growth Percent: CNS U251, 10 µM single dose
Summary of the method: as §1

NCI-H522 = conditions: for Growth Percent: NSCLC NCI-H522, 10 µM single dose
Summary of the method: as §1

SNB-75 = conditions: for Growth Percent: CNS SNB-75, 10 µM single dose; for inhibition at 10 µM: Homo sapiens, CNS SNB-75, 10 μM
Summary of the method: as §1

OVCAR-3 = conditions: Ovarian OVCAR-3, 10 µM single dose
Summary of the method: as §1

TK-10 = conditions: Renal TK-10, 10 µM single dose
Summary of the method: as §1

KM12 = conditions: for Growth Percent: Colon KM12, 10 µM single dose
Summary of the method: (§2)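 Percent inhibition; single 10 μM dose; NCI-60 cell panel; untreated cells as reference.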

UO-31 = conditions: for Growth Percent: Renal UO-31, 10 µM single dose
Summary of the method: as §1

SF-539 = conditions: for Growth Percent: CNS SF-539, 10 µM single dose; for inhibition at 10 µM: Homo sapiens, CNS SF-539, 10 μM
Summary of the method: as §2

HOP-92 = conditions: NSCLC HOP-92, 10 µM single dose
Summary of the method: as §1

HS 578T = conditions: Breast HS 578T, 10 µM single dose
Summary of the method: as §1

MOLT-4 = conditions: for Growth Percent: Leukemia MOLT-4, 10 µM single dose
Summary of the method: as §2

UACC-62 = conditions: Melanoma UACC-62, 10 µM single dose
Summary of the method: as §1

DU-145 = conditions: Prostate DU-145, 10 µM single dose
Summary of the method: as §1

SF-268 = conditions: for Growth Percent: CNS SF-268, 10 µM single dose
Summary of the method: as §2

NCI-H322M = conditions: NSCLC NCI-H322M, 10 µM single dose
Summary of the method: as §1

HCT-116 = conditions: Colon HCT-116, 10 µM single dose
Summary of the method: as §1

SR = conditions: Leukemia SR, 10 µM single dose
Summary of the method: as §1

SF-295 = conditions: CNS SF-295, 10 µM single dose
Summary of the method: as §1

SK-MEL-2 = conditions: Melanoma SK-MEL-2, 10 µM single dose
Summary of the method: as §1

HCT-15 = conditions: Colon HCT-15, 10 µM single dose
Summary of the method: as §1

RPMI-8226 = conditions: Leukemia RPMI-8226, 10 µM single dose
Summary of the method: as §1

CAKI-1 = conditions: Renal CAKI-1, 10 µM single dose
Summary of the method: as §1

NCI-H23 = conditions: for Growth Percent: NSCLC NCI-H23, 10 µM single dose
Summary of the method: as §2

BT-549 = conditions: Breast BT-549, 10 µM single dose
Summary of the method: as §1

OVCAR-4 = conditions: Ovarian OVCAR-4, 10 µM single dose
Summary of the method: as §1

MDA-MB-435 = conditions: Melanoma MDA-MB-435, 10 µM single dose
Summary of the method: as §1

SNB-19 = conditions: CNS SNB-19, 10 µM single dose
Summary of the method: as §1

OVCAR-8 = conditions: Ovarian OVCAR-8, 10 µM single dose
Summary of the method: as §1

Cc1c(C(=O)NO)sc2ncnc(Nc3ccc(NC(=O)Nc4cccc(C(F)(F)F)c4)cc3)c12 [Compound 7c, 1–(4-(6-(hydroxycarbamoyl)-5-methylthieno[2,3-d]pyrimidin-4-ylamino)phenyl)-3–(3-(trifluoromethyl)phenyl)urea]
Growth Percent (M14): 102.4% and 102.43% | Growth Percent (HT29): 97.2% and 97.28% | Growth Percent (786-0): 108.4% and 108.43% | Growth Percent (NCI/ADR-RES): 97.6% and 97.66% | Growth Percent (HL-60(TB)): 102.0% and 102.08% | Growth Percent (SK-MEL-28): 108.2% and 108.23% | Growth Percent (A549/ATCC): 100.4% and 100.47% | Growth Percent (CCRF-CEM): 101.6% | Growth Percent (U251): 73.1% and 73.13% | inhibition at 10 µM (U251; Homo sapiens, U-251, CNS U251, 10 μM): 26.9% | inhibition at 10 µM (NCI-H522; Homo sapiens, NSCLC NCI-H522, 10 μM): 11.7% | Growth Percent (NCI-H522): 88.3% and 88.38% | Growth Percent (SNB-75): 54.0% and 54.04% | inhibition at 10 µM (SNB-75): 46% | Growth Percent (OVCAR-3): 104.2% and 104.27% | Growth Percent (TK-10): 116.24% | Growth Percent (KM12): 66.3% and 66.34% | inhibition at 10 µM (KM12; Homo sapiens, colon KM12, 10 μM): 33.7% | inhibition at 10 µM (UO-31; Homo sapiens, renal UO-31, 10 μM): 24.7% | Growth Percent (UO-31): 75.7% and 75.79% | Growth Percent (SF-539): 61.4% and 61.49% | inhibition at 10 µM (SF-539): 38.6% | Growth Percent (HOP-92): 119.3% and 119.39% | Growth Percent (HS 578T): 90.3% and 90.32% | inhibition at 10 µM (MOLT-4; Homo sapiens, leukaemia MOLT-4, 10 μM): 11.8% | Growth Percent (MOLT-4): 88.2% and 88.24% | Growth Percent (UACC-62): 96.4% | Growth Percent (DU-145): 104.5% and 104.51% | Growth Percent (SF-268): 89.2% | inhibition at 10 µM (SF-268; Homo sapiens, CNS SF-268, 10 μM): 10.8% | Growth Percent (NCI-H322M): 99.6% and 99.69% | Growth Percent (HCT-116): 97.9% and 97.94% | Growth Percent (SR): 94.0% and 94.07% | Growth Percent (SF-295): 95.1% and 95.16% | Growth Percent (SK-MEL-2): 108.5% and 108.54% | Growth Percent (HCT-15): 97.7% and 97.77% | Growth Percent (RPMI-8226): 93.27% | Growth Percent (CAKI-1): 90.57% | inhibition at 10 µM (NCI-H23; Homo sapiens, NSCLC NCI-H23, 10 μM): 11.1% | Growth Percent (NCI-H23): 88.9% and 88.92% | Growth Percent (BT-549): 115.1% and 115.17% | Growth Percent (OVCAR-4): 103.4% and 103.45% | Growth Percent (MDA-MB-435): 100.6% and 100.67% | Growth Percent (SNB-19): 90.8% and 90.81% | Growth Percent (OVCAR-8): 100.4% and 100.41%

Cc1c(C(=O)NCCCC(=O)NO)sc2ncnc(Nc3ccc(NC(=O)Nc4cccc(C(F)(F)F)c4)cc3)c12 [Compound 12c, 1–(4-(6-((4-(hydroxyamino)-4-oxobutyl)carbamoyl)-5-methylthieno[2,3-d]pyrimidin-4-ylamino)phenyl)-3–(3-(trifluoromethyl)phenyl)urea]
Growth Percent (M14): 107.2% and 107.23% | Growth Percent (HT29): 104.0% and 104.09% | Growth Percent (786-0): 106.6% and 106.68% | Growth Percent (NCI/ADR-RES): 99.2% and 99.22% | Growth Percent (HL-60(TB)): 104.7% and 104.71% | Growth Percent (SK-MEL-28): 109.2% and 109.22% | Growth Percent (A549/ATCC): 107.3% and 107.34% | Growth Percent (CCRF-CEM): 107.8% and 107.81% | Growth Percent (U251): 87.3% and 87.39% | Growth Percent (NCI-H522): 94.1% and 94.19% | Growth Percent (SNB-75): 70.7% and 70.76% | inhibition at 10 µM (SNB-75): 29.2% | Growth Percent (OVCAR-3): 117.8% and 117.86% | Growth Percent (TK-10): 117.7% and 117.79% | Growth Percent (KM12): 102.1% and 102.13% | Growth Percent (UO-31): 89.6% and 89.64% | Growth Percent (SF-539): 71.5% and 71.52% | inhibition at 10 µM (SF-539): 28.5% | Growth Percent (HOP-92): 130.0% and 130.03% | Growth Percent (HS 578T): 93.9% and 93.91% | Growth Percent (MOLT-4): 102.4% and 102.48% | Growth Percent (UACC-62): 98.5% and 98.59% | Growth Percent (DU-145): 106.6% and 106.64% | Growth Percent (SF-268): 98.7% and 98.75% | Growth Percent (NCI-H322M): 105.0% and 105.06% | Growth Percent (HCT-116): 107.2% and 107.24% | Growth Percent (SR): 103.3% and 103.37% | Growth Percent (SF-295): 93.7% and 93.78% | Growth Percent (SK-MEL-2): 107.8% and 107.86% | Growth Percent (HCT-15): 99.9% and 99.96% | Growth Percent (RPMI-8226): 104.0% and 104.09% | Growth Percent (CAKI-1): 100.6% and 100.67% | Growth Percent (NCI-H23): 104.6% and 104.64% | Growth Percent (BT-549): 118.8% and 118.81% | Growth Percent (OVCAR-4): 110.1% and 110.14% | Growth Percent (MDA-MB-435): 101.5% and 101.59% | Growth Percent (SNB-19): 96.8% and 96.88% | Growth Percent (OVCAR-8): 105.9% and 105.93%
